Tests used:
Assay in all cases: relative viability (nuclei count vs DMSO), 5 days (fraction); higher = more cells survive
[1] = compound: C[C@@]1(C(=O)Nc2ccc(F)nc2)CCCN1c1nc(Nc2cc(C3CC3)n[nH]2)c2cccn2n1 + O=C(c1cc(Cc2n[nH]c(=O)c3ccccc23)ccc1F)N1CCN(C(=O)C2CC2)CC1 [Olaparib] (partner 8 µM)
How it was run: (§1)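 After 5 days of treatment, lung cancer cells in 1536-well plates were fixed and stained in a single step (final 0.05% Triton X-100, 1% formaldehyde, 1 ug/ml Hoechst) and their nuclei counted on 4× images. Treatment had been applied by pin tool the day after seeding as one drug alone or as a fixed anchor-drug dose with five library-drug doses (not always all listed) in √10 steps. Relative viability is the nuclei count of treated wells divided by that of vehicle wells, and values are medians of duplicate plates.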

Motesanib + Trametinib = compound: CC1(C)CNc2cc(NC(=O)c3cccnc3NCc3ccncc3)ccc21 [Motesanib] + CC(=O)Nc1cccc(-n2c(=O)n(C3CC3)c(=O)c3c(Nc4ccc(I)cc4F)n(C)c(=O)c(C)c32)c1 [Trametinib] (partner 0.02 µM)
How it was run: as §1

Motesanib + Luminespib = compound: CC1(C)CNc2cc(NC(=O)c3cccnc3NCc3ccncc3)ccc21 [Motesanib] + CCNC(=O)c1noc(-c2cc(C(C)C)c(O)cc2O)c1-c1ccc(CN2CCOCC2)cc1 [Luminespib] (partner 0.01 µM)
How it was run: as §1

[2] = compound: C[C@@]1(C(=O)Nc2ccc(F)nc2)CCCN1c1nc(Nc2cc(C3CC3)n[nH]2)c2cccn2n1 + CS(=O)(=O)N1CCN(Cc2cc3nc(-c4cccc5[nH]ncc45)nc(N4CCOCC4)c3s2)CC1 [Pictilisib] (partner 1 µM)
How it was run: as §1

Cell Line | relative viability ([1]; first compound 0.04 µM) | relative viability ([1]; first compound 0.1265 µM) | relative viability ([1]; first compound 0.4 µM) | relative viability ([1]; first compound 1.265 µM) | relative viability (Motesanib + Trametinib; first compound 0.01 µM) | relative viability (Motesanib + Trametinib; first compound 0.03162 µM) | relative viability (Motesanib + Trametinib; first compound 0.1 µM) | relative viability (Motesanib + Trametinib; first compound 0.3162 µM) | relative viability (Motesanib + Trametinib; first compound 1 µM) | relative viability (Motesanib + Luminespib; first compound 0.01 µM) | relative viability (Motesanib + Luminespib; first compound 0.03162 µM) | relative viability (Motesanib + Luminespib; first compound 0.1 µM) | relative viability (Motesanib + Luminespib; first compound 0.3162 µM) | relative viability (Motesanib + Luminespib; first compound 1 µM) | relative viability ([2]; first compound 0.04 µM) | relative viability ([2]; first compound 0.1265 µM) | relative viability ([2]; first compound 0.4 µM) | relative viability ([2]; first compound 1.265 µM)
HCC-827 | 0.663 | 0.769 | 0.55 | 0.716 | 0.442 | 0.593 | 0.505 | 0.541 | 0.623 | 0.777 | 0.809 | 0.775 | 0.75 | 0.576 | 0.889 | 1.07 | 1.1 | 1
HOP-62 | 0.39 | 0.172 | 0.386 | 0.404 | 0.366 | 0.379 | 0.37 | 0.405 | 0.424 | 0.942 | 0.834 | 0.954 | 0.853 | 0.935 | 0.882 | 0.632 | 0.525 | 0.818
IA-LM | 0.835 | 0.81 | 0.658 | 0.719 | – | – | – | – | – | – | – | – | – | – | 0.175 | 0.261 | 0.125 | 0.179
LC-2-ad | 0.676 | 0.664 | 0.581 | 0.492 | 0.9 | 0.903 | 0.865 | 0.871 | 0.84 | 1.03 | 1.01 | 0.959 | 1.07 | 1.19 | 0.248 | 0.271 | 0.272 | 0.206
LCLC-97TM1 | 0.142 | 0.133 | 0.1 | 0.229 | 0.152 | 0.202 | 0.198 | 0.226 | 0.195 | 0.635 | 0.809 | 0.707 | 0.813 | 0.793 | 0.139 | 0.151 | 0.159 | 0.136
LCLC-103H | 0.716 | 0.655 | 0.518 | 0.762 | 0.674 | 0.707 | 0.659 | 0.744 | 0.682 | 0.92 | 0.92 | 0.996 | 1.04 | 0.98 | 0.501 | 0.497 | 0.366 | 0.441
LK-2 | 0.38 | 0.287 | 0.29 | 0.35 | 0.662 | 0.71 | 0.696 | 0.87 | 0.811 | 0.213 | 0.191 | – | 0.189 | 0.192 | 0.574 | 0.565 | 0.569 | 0.523
LOU-NH91 | 0.932 | 0.945 | 0.828 | 0.908 | 0.789 | 0.767 | 0.819 | 0.802 | 0.781 | 0.38 | 0.364 | 0.332 | 0.379 | 0.393 | 0.492 | 0.478 | 0.452 | 0.448
LU99A | 0.292 | 0.227 | 0.231 | 0.276 | 0.302 | 0.596 | 0.548 | 0.539 | 0.583 | 0.228 | 0.187 | 0.336 | 0.243 | 0.25 | 0.233 | 0.217 | 0.225 | 0.163
